pIC50: −log10 of the molar value. Converted amounts (≈) assume the structure as drawn. Read-outs that look alike come from different tables or passages of the source.
Legend:
S. aureus [1] = type: cell-based
H influenzae MetG = H influenzae MetG (Haemophilus influenzae, UniProt P43828); assay: biochemical
S. aureus MetS = S. aureus MetS (Staphylococcus aureus, UniProt P67579); assay: biochemical
[2] = system: staphylococci and streptococci; assay: organism not typed; type: cell-based
E. coli MetG = E. coli MetG (Escherichia coli, UniProt P00959); assay: biochemical
Sequence of E. coli MetG (P00959 whole entry, looked up): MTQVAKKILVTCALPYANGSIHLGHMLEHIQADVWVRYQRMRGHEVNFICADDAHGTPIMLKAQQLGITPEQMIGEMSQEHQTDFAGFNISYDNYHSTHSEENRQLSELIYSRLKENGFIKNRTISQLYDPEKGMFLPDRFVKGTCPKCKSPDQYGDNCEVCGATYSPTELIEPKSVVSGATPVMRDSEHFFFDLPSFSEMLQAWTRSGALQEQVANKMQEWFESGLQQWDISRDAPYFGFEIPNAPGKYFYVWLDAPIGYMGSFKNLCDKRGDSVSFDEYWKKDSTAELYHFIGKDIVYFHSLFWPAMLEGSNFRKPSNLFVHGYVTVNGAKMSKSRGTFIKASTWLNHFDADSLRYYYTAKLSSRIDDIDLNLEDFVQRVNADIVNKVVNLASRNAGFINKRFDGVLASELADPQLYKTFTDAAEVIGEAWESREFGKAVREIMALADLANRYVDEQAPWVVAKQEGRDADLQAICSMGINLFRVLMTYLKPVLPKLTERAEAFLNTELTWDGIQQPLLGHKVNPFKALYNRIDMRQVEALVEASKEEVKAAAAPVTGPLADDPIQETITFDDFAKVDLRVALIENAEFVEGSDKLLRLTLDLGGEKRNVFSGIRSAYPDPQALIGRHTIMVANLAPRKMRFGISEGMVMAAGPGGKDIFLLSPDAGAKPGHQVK

S. pneumoniae MetS2 = S. pneumoniae MetS2 (Streptococcus pneumoniae, UniProt A2MSJ4); assay: biochemical
Sequence of S. pneumoniae MetS2 (A2MSJ4 1-545): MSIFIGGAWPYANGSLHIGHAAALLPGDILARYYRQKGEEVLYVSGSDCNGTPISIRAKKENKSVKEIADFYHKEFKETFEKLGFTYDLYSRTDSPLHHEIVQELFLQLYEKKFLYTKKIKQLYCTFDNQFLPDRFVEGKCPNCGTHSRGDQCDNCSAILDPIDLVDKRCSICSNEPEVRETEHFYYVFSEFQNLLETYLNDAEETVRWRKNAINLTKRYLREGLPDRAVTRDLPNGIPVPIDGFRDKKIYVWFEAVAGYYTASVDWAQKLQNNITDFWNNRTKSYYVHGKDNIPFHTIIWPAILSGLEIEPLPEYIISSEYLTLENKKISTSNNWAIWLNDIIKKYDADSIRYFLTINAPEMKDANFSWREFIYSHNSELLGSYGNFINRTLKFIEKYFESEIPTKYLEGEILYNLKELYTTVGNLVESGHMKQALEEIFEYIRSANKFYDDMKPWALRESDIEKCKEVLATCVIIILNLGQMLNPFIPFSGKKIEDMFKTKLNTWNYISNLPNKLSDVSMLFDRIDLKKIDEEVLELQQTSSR

S. aureus RN4220 = assay: microbe, parasite or virus in culture; type: cell-based; settings: for MIC: Staphylococcus aureus
S. aureus [3] = assay: microbe, parasite or virus in culture; type: cell-based; settings: for MIC: Staphylococcus aureus
S. aureus [4] = assay: microbe, parasite or virus in culture; type: cell-based; settings: Staphylococcus aureus
S. aureus mutants = assay: microbe, parasite or virus in culture; type: cell-based; settings: Staphylococcus aureus, ATCC43300
staphylococci = settings: cited from earlier work
[5] = 1079077 (MRSA), 10^10 CFU, five days
[6] = ATCC 29213 (MSSA), 10^10 CFU, five days
[7] = ATCC 43300 (MRSA), 10^10 CFU, five days
[8] = LZ10 (MRSA), 10^10 CFU, five days
[9] = S. aureus, including MSSA and MRSA strains
[10] = RN4220, pYH4 vector control, +aTc inducer
[11] = RN4220, pYH4 vector control, −aTc inducer
[12] = ATCC 29213 / MSSA, read-out: MIC After 20 passages, S. aureus ATCC29213, MSSA, MupS
[13] = ATCC 29213 / MSSA, read-out: MIC Initial, S. aureus ATCC29213, MSSA, MupS
[14] = ATCC 43300 / MRSA, read-out: MIC After 20 passages, S. aureus ATCC43300, MRSA, MupS
[15] = MRSA / NRS 103, read-out: MIC After 20 passages, S. aureus NRS103, MRSA, MupS
[16] = MRSA / NRS 103, read-out: MIC Initial, S. aureus NRS103, MRSA, MupS
[17] = MRSA, read-out: MIC After 20 passages, S. aureus 10-420, MRSA, HL-MupR
[18] = MRSA, read-out: MIC After 20 passages, S. aureus 25-670, MRSA, HL-MupR
[19] = MRSA, read-out: MIC After 20 passages, S. aureus 31-1334, MRSA, LL-MupR
[20] = MRSA, read-out: MIC After 20 passages, S. aureus 87-2797, MRSA, HL-MupR
[21] = MRSA, read-out: MIC After 20 passages, S. aureus 1079077, MRSA, MupS
[22] = MRSA, read-out: MIC After 20 passages, S. aureus LZ1, MRSA, HL-MupR
[23] = MRSA, read-out: MIC After 20 passages, S. aureus LZ6, MRSA, HL-MupR
[24] = MRSA, read-out: MIC After 20 passages, S. aureus LZ10, MRSA, MupS
[25] = MRSA, read-out: MIC Initial, S. aureus 10-420, MRSA, HL-MupR
[26] = MRSA, read-out: MIC Initial, S. aureus 25-670, MRSA, HL-MupR
[27] = MRSA, read-out: MIC Initial, S. aureus 31-1334, MRSA, LL-MupR
[28] = MRSA, read-out: MIC Initial, S. aureus 87-2797, MRSA, HL-MupR
[29] = MRSA, read-out: MIC Initial, S. aureus 1079077, MRSA, MupS
[30] = MRSA, read-out: MIC Initial, S. aureus LZ1, MRSA, HL-MupR
[31] = MRSA, read-out: MIC Initial, S. aureus LZ6, MRSA, HL-MupR
[32] = MRSA, read-out: MIC Initial, S. aureus LZ10, MRSA, MupS
[33] = MSSA / NRS 107, read-out: MIC After 20 passages, S. aureus NRS107, MSSA, HL-MupR
[34] = MSSA / NRS 107, read-out: MIC Initial, S. aureus NRS107, MSSA, HL-MupR
[35] = MSSA, read-out: MIC After 20 passages, S. aureus 1079101, MSSA, HL-MupR
[36] = MSSA, read-out: MIC Initial, S. aureus 1079101, MSSA, HL-MupR

Sequence of H influenzae MetG (P43828 whole entry): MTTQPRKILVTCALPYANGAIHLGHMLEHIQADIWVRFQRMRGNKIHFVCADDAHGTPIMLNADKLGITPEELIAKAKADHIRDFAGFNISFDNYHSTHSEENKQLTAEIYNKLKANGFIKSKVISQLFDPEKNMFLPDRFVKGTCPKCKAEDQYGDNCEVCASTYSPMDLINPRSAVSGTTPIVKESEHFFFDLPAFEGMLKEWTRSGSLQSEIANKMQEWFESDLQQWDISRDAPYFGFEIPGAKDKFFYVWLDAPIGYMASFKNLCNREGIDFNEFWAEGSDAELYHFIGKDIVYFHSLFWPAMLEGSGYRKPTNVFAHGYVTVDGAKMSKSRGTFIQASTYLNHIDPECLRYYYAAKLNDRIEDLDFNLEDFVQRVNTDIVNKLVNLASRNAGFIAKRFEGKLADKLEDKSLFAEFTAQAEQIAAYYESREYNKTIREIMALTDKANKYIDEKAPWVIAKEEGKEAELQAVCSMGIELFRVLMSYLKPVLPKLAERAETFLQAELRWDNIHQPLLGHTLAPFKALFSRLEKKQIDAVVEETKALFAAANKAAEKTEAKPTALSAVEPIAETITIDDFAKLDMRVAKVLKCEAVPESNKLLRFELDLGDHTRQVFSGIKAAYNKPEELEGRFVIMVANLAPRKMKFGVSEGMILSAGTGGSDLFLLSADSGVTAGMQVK
Sequence of S. aureus MetS (P67579 whole entry): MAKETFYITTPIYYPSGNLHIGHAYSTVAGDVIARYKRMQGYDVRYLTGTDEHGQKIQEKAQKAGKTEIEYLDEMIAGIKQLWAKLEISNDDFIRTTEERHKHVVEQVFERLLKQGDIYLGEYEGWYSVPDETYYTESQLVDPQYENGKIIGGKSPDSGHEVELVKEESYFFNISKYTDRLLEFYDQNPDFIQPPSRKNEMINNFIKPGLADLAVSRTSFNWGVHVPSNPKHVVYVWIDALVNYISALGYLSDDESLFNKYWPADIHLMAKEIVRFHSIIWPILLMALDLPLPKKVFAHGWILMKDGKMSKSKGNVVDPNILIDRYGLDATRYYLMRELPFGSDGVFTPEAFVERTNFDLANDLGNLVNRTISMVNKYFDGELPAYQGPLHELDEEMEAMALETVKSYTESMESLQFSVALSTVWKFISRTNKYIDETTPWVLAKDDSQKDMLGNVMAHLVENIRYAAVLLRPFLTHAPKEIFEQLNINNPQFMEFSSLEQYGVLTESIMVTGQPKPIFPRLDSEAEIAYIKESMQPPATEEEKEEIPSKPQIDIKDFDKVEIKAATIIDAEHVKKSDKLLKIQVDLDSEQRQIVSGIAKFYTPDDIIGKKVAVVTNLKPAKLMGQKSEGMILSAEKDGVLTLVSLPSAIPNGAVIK

C=C(F)c1sc(CNCCCNc2cc(=O)c3ccccc3[nH]2)c(C)c1Br [Compound 1, N-(4-bromo-5-(1-fluorovinyl)-3-methylthiophen-2-ylmethyl)-N′-(1H-quinolin-4-one)propane-1,3-diamine]
MPC (S. aureus [1]; [5]): 32 µg/mL | MPC (S. aureus [1]; [6]): 32 µg/mL | MPC (S. aureus [1]; [7]): 32 µg/mL | MPC (S. aureus [1]; [8]): 32 µg/mL | MPC (S. aureus [1]; [9]): 32 µg/mL | pIC50 (H influenzae MetG): 7.60 | pIC50 (S. aureus MetS): > 8.72 | MIC range after twenty serial passages ([2]; strains of Table 4): 0.06 to 16 µg/mL | MIC initial range ([2]; strains of Table 4, before passages): 0.015 to 0.06 µg/mL | pIC50 (E. coli MetG): 6.51 | pIC50 (S. pneumoniae MetS2): < 6.30 | shift in the MIC upon induction of MRS expression (S. aureus RN4220; RN4220 (pYH4-MRS)): 8 fold | MIC (S. aureus RN4220; RN4220, pYH4-MRS, +aTc inducer): 1 µg/mL (≈ 2.22 µM) | MIC (S. aureus RN4220; RN4220, pYH4-MRS, −aTc inducer): 0.12 µg/mL (≈ 0.266 µM) | MIC (S. aureus RN4220; [10]): 0.008 µg/mL (≈ 0.0178 µM) | MIC (S. aureus RN4220; [11]): 0.008 µg/mL (≈ 0.0178 µM) | initial MIC range (S. aureus [3]): 0.03 to 0.5 µg/mL | MIC (S. aureus [3]): 0.5 µg/mL (≈ 1.11 µM) | MIC (S. aureus [3]; ATCC 29213 / MSSA): 0.03 µg/mL (≈ 0.0666 µM) | MIC (S. aureus [3]; ATCC 43300 / MRSA): 0.06 µg/mL (≈ 0.133 µM) | MIC (S. aureus [4]; [12]): 4 µg/mL (≈ 8.88 µM) | MIC (S. aureus [4]; [13]): 0.06 µg/mL (≈ 0.133 µM) | MIC (S. aureus [4]; [14]): 1 µg/mL (≈ 2.22 µM) | MIC (S. aureus [4]; [15]): 1 µg/mL (≈ 2.22 µM) | MIC (S. aureus [4]; [16]): 0.12 µg/mL (≈ 0.266 µM) | MIC (S. aureus [4]; [17]): 8 µg/mL (≈ 17.8 µM) | MIC (S. aureus [4]; [18]): 8 µg/mL (≈ 17.8 µM) | MIC (S. aureus [4]; [19]): 8 µg/mL (≈ 17.8 µM) | MIC (S. aureus [4]; [20]): 16 µg/mL (≈ 35.5 µM) | MIC (S. aureus [4]; [21]): 16 µg/mL (≈ 35.5 µM) | MIC (S. aureus [4]; [22]): 0.06 µg/mL (≈ 0.133 µM) | MIC (S. aureus [4]; [23]): 2 µg/mL (≈ 4.44 µM) | MIC (S. aureus [4]; [24]): 0.5 µg/mL (≈ 1.11 µM) | MIC (S. aureus [4]; [25]): 0.06 µg/mL (≈ 0.133 µM) | MIC (S. aureus [4]; [26]): 0.06 µg/mL (≈ 0.133 µM) | MIC (S. aureus [4]; [27]): 0.03 µg/mL (≈ 0.0666 µM) | MIC (S. aureus [4]; [28]): 0.03 µg/mL (≈ 0.0666 µM) | MIC (S. aureus [4]; [29]): 0.25 µg/mL (≈ 0.555 µM) | MIC (S. aureus [4]; [30]): 0.06 µg/mL (≈ 0.133 µM) | MIC (S. aureus [4]; [31]): 0.06 µg/mL (≈ 0.133 µM) | MIC (S. aureus [4]; [32]): 0.03 µg/mL (≈ 0.0666 µM) | MIC (S. aureus [4]; [33]): 0.5 µg/mL (≈ 1.11 µM) | MIC (S. aureus [4]; [34]): 0.015 µg/mL (≈ 0.0333 µM) | MIC (S. aureus [4]; [35]): 16 µg/mL (≈ 35.5 µM) | MIC (S. aureus [4]; [36]): 0.06 µg/mL (≈ 0.133 µM) | MIC (S. aureus mutants): 2 µg/mL (≈ 4.44 µM)

CO[C@@H]1[C@@H](OC(N)=O)[C@@H](O)[C@H](Oc2ccc3c(O)c(NC(=O)c4ccc(O)c(CC=C(C)C)c4)c(=O)oc3c2C)OC1(C)C [Novobiocin]
MIC change upon MRS overexpression (S. aureus RN4220): remained unchanged | MIC (S. aureus RN4220; RN4220, pYH4-MRS, +aTc inducer): 0.25 µg/mL (≈ 0.408 µM) | MIC (S. aureus RN4220; RN4220, pYH4-MRS, −aTc inducer): 0.25 µg/mL (≈ 0.408 µM) | MIC (S. aureus RN4220; [10]): 0.25 µg/mL (≈ 0.408 µM) | MIC (S. aureus RN4220; [11]): 0.25 µg/mL (≈ 0.408 µM)

CN[C@H](CC(C)C)C(=O)N[C@H]1C(=O)N[C@@H](CC(N)=O)C(=O)N[C@H]2C(=O)N[C@H]3C(=O)N[C@H](C(=O)N[C@H](C(=O)O)c4cc(O)cc(O)c4-c4cc3ccc4O)[C@H](O)c3ccc(c(Cl)c3)Oc3cc2cc(c3O[C@@H]2O[C@H](CO)[C@@H](O)[C@H](O)[C@H]2O[C@H]2C[C@](C)(N)[C@H](O)[C@H](C)O2)Oc2ccc(cc2Cl)[C@H]1O [Vancomycin]
MIC change upon MRS overexpression (S. aureus RN4220): remained unchanged | MIC (S. aureus RN4220; RN4220, pYH4-MRS, +aTc inducer): 0.5 µg/mL (≈ 0.345 µM) | MIC (S. aureus RN4220; RN4220, pYH4-MRS, −aTc inducer): 0.5 µg/mL (≈ 0.345 µM) | MIC (S. aureus RN4220; [10]): 1 µg/mL (≈ 0.69 µM) | MIC (S. aureus RN4220; [11]): 1 µg/mL (≈ 0.69 µM)

C/C(=C\C(=O)OCCCCCCCCC(=O)O)C[C@@H]1OC[C@H](C[C@@H]2O[C@H]2[C@@H](C)[C@H](C)O)[C@@H](O)[C@H]1O [Mupirocin]
MPC (S. aureus [1]; [5]): >32 µg/mL | MPC (S. aureus [1]; [6]): 32 µg/mL | MPC (S. aureus [1]; [7]): 32 µg/mL | MPC (S. aureus [1]; [8]): >32 µg/mL | MPC (S. aureus [1]; [9]): ≥ 32 µg/mL | MIC range after 20 passages ([2]; mupirocin-susceptible strains): 0.5 to 8 µg/mL | MIC range initial ([2]; mupirocin-susceptible strains): 0.06 to 0.5 µg/mL | MIC ([2]; read-out: MIC after 20 passages): 128 µg/mL (≈ 256 µM) | MIC ([2]; read-out: MIC initial): 32 µg/mL (≈ 63.9 µM) | MIC (staphylococci; high-level mupirocin resistance): > 256 µg/mL | MIC (staphylococci; low-level mupirocin resistance): 8 to 256 µg/mL | MIC change upon MRS overexpression (S. aureus RN4220): remained unchanged | MIC (S. aureus RN4220; RN4220, pYH4-MRS, +aTc inducer): 0.06 µg/mL (≈ 0.12 µM) | MIC (S. aureus RN4220; RN4220, pYH4-MRS, −aTc inducer): 0.06 µg/mL (≈ 0.12 µM) | MIC (S. aureus RN4220; [10]): 0.06 µg/mL (≈ 0.12 µM) | MIC (S. aureus RN4220; [11]): 0.06 µg/mL (≈ 0.12 µM) | MIC (S. aureus [3]; ATCC 29213 / MSSA): 0.12 µg/mL (≈ 0.24 µM) | MIC (S. aureus [3]; ATCC 43300 / MRSA): 0.12 µg/mL (≈ 0.24 µM) | MIC (S. aureus [4]; [12]): 0.5 µg/mL (≈ 0.999 µM) | MIC (S. aureus [4]; [13]): 0.06 µg/mL (≈ 0.12 µM) | MIC (S. aureus [4]; [14]): 8 µg/mL (≈ 16 µM) | MIC (S. aureus [4]; ATCC 43300 / MRSA, read-out: MIC Initial, S. aureus ATCC43300, MRSA, MupS): 0.06 µg/mL (≈ 0.12 µM) | MIC (S. aureus [4]; [15]): 1 µg/mL (≈ 2 µM) | MIC (S. aureus [4]; [16]): 0.25 µg/mL (≈ 0.499 µM) | MIC (S. aureus [4]; [17]): 4100 µg/mL (≈ 8180 µM) | MIC (S. aureus [4]; [18]): 4100 µg/mL (≈ 8180 µM) | MIC (S. aureus [4]; [19]): 128 µg/mL (≈ 256 µM) | MIC (S. aureus [4]; [20]): 4100 µg/mL (≈ 8180 µM) | MIC (S. aureus [4]; [21]): 1 µg/mL (≈ 2 µM) | MIC (S. aureus [4]; [22]): 4100 µg/mL (≈ 8180 µM) | MIC (S. aureus [4]; [23]): 4100 µg/mL (≈ 8180 µM) | MIC (S. aureus [4]; [24]): 2 µg/mL (≈ 3.99 µM) | MIC (S. aureus [4]; [25]): 4100 µg/mL (≈ 8180 µM) | MIC (S. aureus [4]; [26]): 2050 µg/mL (≈ 4090 µM) | MIC (S. aureus [4]; [27]): 32 µg/mL (≈ 63.9 µM) | MIC (S. aureus [4]; [28]): 2050 µg/mL (≈ 4090 µM) | MIC (S. aureus [4]; [29]): 0.5 µg/mL (≈ 0.999 µM) | MIC (S. aureus [4]; [30]): 4100 µg/mL (≈ 8180 µM) | MIC (S. aureus [4]; [31]): 4100 µg/mL (≈ 8180 µM) | MIC (S. aureus [4]; [32]): 0.25 µg/mL (≈ 0.499 µM) | MIC (S. aureus [4]; [33]): 4100 µg/mL (≈ 8180 µM) | MIC (S. aureus [4]; [34]): 4100 µg/mL (≈ 8180 µM) | MIC (S. aureus [4]; [35]): 4100 µg/mL (≈ 8180 µM) | MIC (S. aureus [4]; [36]): 4100 µg/mL (≈ 8180 µM)
